According to PubChem BioAssay AID1996:
Values after ≈ are worked out from the molar mass of the structure shown.

Details: buffer; pH 7.4; 200.0 µM

solubility kinetic [µg/mL]	SMILES
12.4 (≈ 35.5 µM)	COc1ccc(CNC(=O)COC(=O)c2sccc2C)cc1OC
> 40.6	Cc1ccc2c(C(=O)CN3CCCCC3)c(C)[nH]c2c1
1.4 (≈ 4.54 µM)	Cc1ccc(SCC(=O)NC(=O)NCCC(C)C)c(C)c1
20.7 (≈ 84.4 µM)	Cc1ccc(C(C)NC(=O)c2cccs2)cc1 (stereo not given)
44.7 (≈ 136 µM)	CC1CCN(C(=O)c2ccc(NC(=O)c3cccs3)cc2)CC1
> 43.6	CC(C)c1ccc(C(=O)NCCCN2CCOCC2)cc1
27.6 (≈ 96.4 µM)	Cc1ccsc1C(=O)Nc1ccccc1N1CCCC1
> 35.7	CC1CCCN(C(=O)c2ccc([N+](=O)[O-])o2)C1 (stereo not given)
51.1	CCOC(=O)N1CCC(N2CCN(c3ccccc3)CC2)CC1.Cl
> 39.6	Cc1cccc(NC(=O)CN2C(=O)CSC2=O)c1
12.3 (≈ 38.7 µM)	CN(Cc1c(F)cccc1Cl)C(=O)c1cc2ccccc2o1
15.3 (≈ 31.7 µM)	COc1ccc(NC(=O)CCCOc2ccc(Cl)c(C)c2)cc1S(=O)(=O)N1CCOCC1
> 43.9	COC(=O)c1ccccc1NC(=O)NN1CCN(C)CC1
1 (≈ 2.79 µM)	CCOC(=O)C(=CNc1cc(OC)ccc1-n1cccc1)C(=O)OCC
> 45	CC(=O)N1CCN(C(=O)c2cc(=O)c3ccccc3o2)CC1
> 42.4	O=C(NCCS(=O)(=O)N1CCCC1)c1ccccc1
> 37.9	CN1CCCN(C(=O)c2ccccc2Cl)CC1
> 44.2	O=C(C1CCC(=O)N1Cc1cccs1)N1CCOCC1 (stereo not given)
14.1 (≈ 36.2 µM)	O=C(/C=C/c1ccccc1)N(Cc1cccc(Cl)c1)C1CCS(=O)(=O)C1 (stereo not given)
53.4 (≈ 149 µM)	CN(CC(=O)Nc1c(Cl)cccc1Cl)C(=O)CCC1CCCC1
> 48.7	CC(C)n1c(SCC(=O)Nc2nncs2)nnc1C1CC1
> 64.3	CCOc1ccccc1Nc1nnc(SCC(=O)NC2CCS(=O)(=O)C2)s1 (stereo not given)
19.4 (≈ 74.8 µM)	C=CCN1C(=O)C2(OCCCO2)c2cc(C)ccc21
> 47.9	CC1CCN(C(=O)COC(=O)c2ccc3c(c2)OCCO3)CC1
1.2 (≈ 4.18 µM)	CCc1cc2c(=O)c(-c3nc(C)cs3)coc2cc1O
> 37.4	Cc1cc(C(=O)NCc2cc(C(=O)O)co2)co1
> 47.6	Cc1c(C(=O)OCC(=O)NCC2CCCO2)oc2ccccc12 (stereo not given)
> 66.7	CC1Cc2ccccc2N1S(=O)(=O)c1cccc(C(=O)OCC(=O)N2CCOCC2)c1 (stereo not given)

solubility kinetic [µg/mL]	SMILES
> 46.7	Cc1ccc(C)c(S(=O)(=O)N2CCC3(CC2)OCCO3)c1
27.5 (≈ 95.4 µM)	Cc1ccc(C)c(C(=O)CSc2nc(C)cc(=O)[nH]2)c1
> 49.1	O=C(Cc1ccc(Br)cc1)NCCN1CCOCC1
> 19.4	CC1CC(O)C(C)CN1 (stereo not given)
16.1 (≈ 50.7 µM)	COC(=O)c1ccccc1NC(=O)Nc1cc(C(C)(C)C)on1
0.5 (≈ 1.68 µM)	Cc1cc(C)cc(NC(=S)NC(=O)Cc2ccccc2)c1
4.1 (≈ 11.9 µM)	CCOCCCNC(=O)c1cc2c(=O)n3cccc(C)c3nc2s1
> 43.4	CCCCN(C)C(=O)C1CCN(Cc2cccnc2)CC1
> 43.2	COc1cc(C(=O)Nc2cccnc2)cc(OC)c1OC
> 32.6	O=C(/C=C/c1ccccc1)N1CCOCC1
38.4 (≈ 127 µM)	COc1ccc(N2CCOCC2)c(NC(=O)c2ccco2)c1
8.2 (≈ 21.7 µM)	Cn1c(=O)n(C)c2cc(NC(=O)c3ccc(F)cc3)c(Br)cc21
> 44.8	CN(C)CCCNC(=O)c1ccccc1Oc1ccccc1
45.4 (≈ 149 µM)	COc1ccc(NC(=O)C2C3CCC(O3)C2C(=O)O)c(C)c1 (stereo not given)
50.6 (≈ 146 µM)	O=C(O)CC1(CC(=O)Nc2ccc3c(c2)OCCCO3)CCCCC1
< 0.7	COc1ccc2oc(=O)c(C(=O)Nc3cccc(C(C)=O)c3)cc2c1
> 27.2	Cc1oc(C(C)(C)C)cc1C(N)=O
12.6 (≈ 53.5 µM)	Cc1cc(C(=O)NC2CCC(C)CC2)c(C)o1 (stereo not given)
> 47.6	CCOC(=O)CC(NC(=O)c1cccs1)c1ccc(C)cc1 (stereo not given)
5.5 (≈ 20 µM)	CC1CCC(NC(=O)C2COc3ccccc3O2)CC1 (stereo not given)
14.9 (≈ 48.3 µM)	Cc1cc(C(=O)NCCc2ccccc2)c2cc(F)ccc2n1
1.2 (≈ 3.49 µM)	CCOc1ccc(C(=O)NCc2ccc3c(c2)OCO3)cc1OCC
18.8 (≈ 57.4 µM)	O=C(COc1ccc(F)cc1)N1CCC(Cc2ccccc2)CC1
41.4 (≈ 140 µM)	Cc1ccc(C)c(S(=O)(=O)NCC(=O)N2CCCC2)c1
> 43.7	CCCC(C)NC(=O)CSc1nc2ccc(C)cc2[nH]1 (stereo not given)
> 45.7	Cc1ccc2c(c1)N(CC(=O)N1CCC(O)CC1)C(=O)CO2
22.7 (≈ 68.5 µM)	Cc1cc(C(=O)CN2C(=O)NC(CC(C)C)C2=O)c(C)n1C1CC1 (stereo not given)

Continued, molecule first:

SMILES	solubility kinetic [µg/mL]
O=C(O)CCNC(=O)c1ccccc1	> 29
COCCNC(=S)NCCc1ccc(Cl)cc1Cl	> 46.1
O=C(O)Cn1c(=O)n(Cc2ccccc2)c2ccccc21	> 42.3
Cn1c(N)c(Br)c(-c2ccc(F)cc2)c(C#N)c1=O	8 (≈ 24.8 µM)
c1ccc2[nH]c(CCCc3nc4ccccc4[nH]3)nc2c1	29.7 (≈ 107 µM)
O=C(Cn1ccc([N+](=O)[O-])n1)NCc1ccccc1	> 39
Cn1ccsc1=NC(=O)c1cccc(OC(F)F)c1	> 42.6
CCCc1nc2ccccc2c(=O)n1CCc1ccccc1	1.7 (≈ 5.81 µM)
CC(C)c1nc2oc3c(=O)[nH]cnc3c2c2c1COC(C)(C)C2	> 47
COCCn1c(N)c(N(Cc2ccccc2)C(=O)c2cc(=O)[nH]c3ccccc23)c(=O)[nH]c1=O	> 69.2
Nc1nc(SCc2ccc(F)cc2)ns1	33.6 (≈ 139 µM)
COc1ccc(C(=O)C(C)OC(=O)CNC(=O)c2ccco2)cc1 (stereo not given)	> 49.7
CC(=O)N/C(=C\c1ccc(Cl)cc1)C(=O)O	34.7 (≈ 145 µM)
N/C(=N/[N+](=O)[O-])N1CCN(C(=O)Oc2ccc([N+](=O)[O-])cc2)CC1	> 50.7
COc1cccc(C(=O)Nc2ccc3[nH]c(=O)[nH]c3c2)c1OC	27.7 (≈ 88.4 µM)
Cc1c(C=O)c2ccccn2c1C(=O)c1ccc(Cl)c([N+](=O)[O-])c1	1.6 (≈ 4.67 µM)
Nc1ccc(Sc2ccccc2Cl)nc1	> 35.5
O=S(=O)(Nc1ccc(F)cc1)c1ccc(S(=O)(=O)N2CCOCC2)cc1	12.6 (≈ 31.5 µM)
COc1ccc(N=C2NC(=O)/C(=C/c3ccco3)S2)cc1	1.6 (≈ 5.33 µM)
Cc1ccc2nc(-c3ccncc3)cc(C(=O)NCc3ccccc3F)c2c1	2.5 (≈ 6.73 µM)
CCOC(=O)NC(C(Cl)(Cl)Cl)S(=O)(=O)c1ccccc1 (stereo not given)	> 54.1
CCn1c(Oc2ccccc2C)nc2c1c(=O)n(C)c(=O)n2C	> 47.2

SMILES	solubility kinetic [µg/mL]
CC(=O)c1cccc(NC(=S)Nc2cccc3ccccc23)c1	10.6 (≈ 33.1 µM)
Cc1ccccc1NCCC(=O)Nc1ccc(Cl)cc1	> 43.3
O=C(O)c1ccc(CNC(=O)C23CC4CC(CC(C4)C2)C3)cc1	> 47
O=S(=O)(c1ccc(Cl)cc1)N1CCN(c2ncnc3sccc23)CC1	7 (≈ 17.7 µM)
CC(NC(=O)COc1ccccc1)C(=O)NCc1ccc(S(N)(=O)=O)cc1 (stereo not given)	> 58.7
Cc1ccc(NC(=O)CCc2nc3ccccc3s2)c(O)c1	8.9 (≈ 28.5 µM)
O=C(CN1CCN(C(=O)c2ccccc2)CC1)Nc1ccccc1	> 48.5
Oc1ccc(C2Nc3cccc4cccc(c34)N2)cc1	> 39.3
O=C(CCCC(=O)c1ccccc1)NCCc1ccccc1	> 44.3
O=C(/C=C/c1ccccc1)OCN1C(=O)c2ccccc2C1=O	2.6 (≈ 8.46 µM)
CC(=O)N/C(=C\c1ccccc1)C(=O)OC/C=C/c1ccccc1	47.3 (≈ 147 µM)
COc1ccccc1C1CCN(c2ccc([N+](=O)[O-])cn2)CC1	< 0.2
CC(C)NC(=O)c1cccc2c1-c1ccccc1C2=O	13.3 (≈ 50.1 µM)
COc1ccc(-c2oc(=O)n(C)c2-c2ccc(OC)cc2)cc1	17.3 (≈ 55.6 µM)
Cc1cccc(NC(=O)Cc2ccc(Br)cc2)n1	38.6 (≈ 126 µM)
O/N=C/c1ccc2ccccc2n1	> 25.8
Cc1nc(-c2cccs2)sc1C(=O)O	> 33.8
CN(CCN1CCOCC1)Cc1nc(-c2cccs2)no1	44.5 (≈ 144 µM)
C/C=C/c1ccc(OCC(=O)Nc2ccncc2)c(OC)c1	42.1 (≈ 141 µM)
O=C(CNC(=O)c1ccc(Br)o1)NCc1ccc(F)cc1	> 53.3
COc1ccc(/C=C(\C#N)C(=O)c2cccn2C)cc1	5 (≈ 18.8 µM)
CC(=O)c1csc(COc2ccc(Cl)cc2)n1	3 (≈ 11.2 µM)

SMILES	solubility kinetic [µg/mL]
CC(C)CN(C(=O)CN(C)CC(=O)Nc1ccc(Cl)c(C(F)(F)F)c1)c1c(N)n(CC(C)C)c(=O)[nH]c1=O	6 (≈ 10.7 µM)
O=C(O)CSc1cn(Cc2ccccc2)c2ccccc12	> 44.6
O=S(=O)(NCCCCNS(=O)(=O)c1ccc(F)cc1)c1ccc(F)cc1	0.7 (≈ 1.73 µM)
Cc1nc(C)c(-c2csc(Nc3ccc(F)cc3)n2)s1	1.8 (≈ 5.89 µM)
O=C(CNC(=O)c1ccc(Br)o1)NCc1cccc(Cl)c1	55.5 (≈ 149 µM)
Cc1ccc(C(=O)O)cc1NC(=O)Nc1cccc2ccccc12	> 48.1
O=C(Nc1nc2ccsc2c(=O)s1)c1ccco1	7.3 (≈ 26.2 µM)
S=C1Nc2ccccc2Sc2ccccc21	1 (≈ 4.11 µM)
CN(C)CC(=O)N1CCc2ccccc2C1.O=C(O)C(=O)O	> 46.2
COc1ccccc1C(=O)NCCSCc1c(F)cccc1Cl	13.6 (≈ 38.4 µM)
O=C(NCc1ccccc1)NC(=O)c1ccccc1F	21.1 (≈ 77.5 µM)
Cc1nc2ccccn2c1-c1ccnc(SCc2ccc(Cl)cc2)n1	< 0.2
COC(=O)CSc1[nH]c2ccccc2c1[N+](=O)[O-]	> 39.9
O/N=C\c1ccc2noc(-c3ccc(Cl)cc3)c2c1	< 0.3
Cc1ccccc1NC1=NCC(c2ccc([N+](=O)[O-])cc2)S1 (stereo not given)	10.5 (≈ 33.5 µM)
O=C1NC(=O)c2cc([N+](=O)[O-])cc3cccc1c23	6.3 (≈ 26 µM)
CSc1cccc(NC(=S)N(C(C)C)C(C)c2ccccn2)c1 (stereo not given)	9.6 (≈ 27.8 µM)
O=C1CSC(c2ccccc2[N+](=O)[O-])N1c1ccc(O)cc1 (stereo not given)	> 47.4
COc1cc(/C=C(/C#N)C(=O)NCCCc2ccccc2)ccc1OCC(=O)O	37.9 (≈ 96.1 µM)
O=C1CSC(c2ccccc2)N1c1cccnc1 (stereo not given)	> 38.4
O=C(O)c1c(NC(=O)N2CCOCC2)sc2c1CCCC2	> 46.6
